Counter-ions that a name gives are not always drawn. Where a SMILES comes first, the peptide text is derived from it.
Assays:
Trypsin = target: T1, Trypsin (Bos taurus, UniProt P00760); assay: Relative reactivity of substrate with trypsin (absorbancy at 405 nm); type: biochemical, Bovine; settings: substrate 10 mM/l; trypsin 0.07 U/ml; Tris 50 mmol, NaCl 150 mmol, pH 8.1; 37° C. 10 minutes; absorbancy 405 nm; relative to S-2222 10 mM = 1.0
T1 construct: purchased Boehringer
T1 sequence (P00760 24-246): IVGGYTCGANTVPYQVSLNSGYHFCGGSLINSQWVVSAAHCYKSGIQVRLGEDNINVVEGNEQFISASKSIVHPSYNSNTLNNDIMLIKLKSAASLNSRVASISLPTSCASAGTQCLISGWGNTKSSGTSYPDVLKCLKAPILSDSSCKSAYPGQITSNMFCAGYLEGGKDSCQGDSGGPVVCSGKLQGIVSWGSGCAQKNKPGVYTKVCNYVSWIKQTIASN
Description: (§1) Specificity of the synthesized new substrate was examined by reacting with each enzyme. Details of reagents used are as describved below.
(§2) (2) Buffer: Kind of buffer, NaCl and its concentration and pH (25° C.) were set as shown below depending upon enzyme. […]
(§3) (3) Enzyme used: Enzyme used and its source, etc. are as follows. […]
(§4) (4) Terminate solution: 10% acetic acid aqueous solution.
(§5) Buffer, 0.5 ml and 0.1 ml of substrate solution are charged in a silicone-treated hard glass test tube or plastic test tube. The mixture is previously heated for 10 minutes in a thermostat at 37° C. Then, 0.05 ml of enzyme reagent is added to the mixture to perform enzyme reaction at 37° C. for 10 minutes.
Accurately 10 minutes after, 2.5 ml of the terminate solution is added to stop the enzyme reaction. Then the reaction mixture is allowed to stand at 37° C for 10 minutes and its absorbancy is measured at 405 nm.
(§6) Values in the tables indicate relative values when absorbancy of substrate S-2222, 10 mM, was made 1.0.

[1] = target: T2, α2 -macroglobulin-trypsin complex (α2 M-Try) (Bos taurus, UniProt P00760); assay: Relative reactivity of substrate with α2 M-Try (absorbancy at 405 nm); type: biochemical, Bovine; settings: substrate 10 mM/l; α2 M-Try 1/20 dilution; Bistrispropane 100 mmol, NaCl 150 mmol, pH 8.7; 37° C. 10 minutes; absorbancy 405 nm; relative to S-2222 10 mM = 1.0
T2 construct: purchased SIGMA (Try); Boehringer (α2 M)
T2 sequence (P00760 24-246): T1 sequence (P00760 24-246)
T2 sequence (Q7SIH1 24-1510 partner): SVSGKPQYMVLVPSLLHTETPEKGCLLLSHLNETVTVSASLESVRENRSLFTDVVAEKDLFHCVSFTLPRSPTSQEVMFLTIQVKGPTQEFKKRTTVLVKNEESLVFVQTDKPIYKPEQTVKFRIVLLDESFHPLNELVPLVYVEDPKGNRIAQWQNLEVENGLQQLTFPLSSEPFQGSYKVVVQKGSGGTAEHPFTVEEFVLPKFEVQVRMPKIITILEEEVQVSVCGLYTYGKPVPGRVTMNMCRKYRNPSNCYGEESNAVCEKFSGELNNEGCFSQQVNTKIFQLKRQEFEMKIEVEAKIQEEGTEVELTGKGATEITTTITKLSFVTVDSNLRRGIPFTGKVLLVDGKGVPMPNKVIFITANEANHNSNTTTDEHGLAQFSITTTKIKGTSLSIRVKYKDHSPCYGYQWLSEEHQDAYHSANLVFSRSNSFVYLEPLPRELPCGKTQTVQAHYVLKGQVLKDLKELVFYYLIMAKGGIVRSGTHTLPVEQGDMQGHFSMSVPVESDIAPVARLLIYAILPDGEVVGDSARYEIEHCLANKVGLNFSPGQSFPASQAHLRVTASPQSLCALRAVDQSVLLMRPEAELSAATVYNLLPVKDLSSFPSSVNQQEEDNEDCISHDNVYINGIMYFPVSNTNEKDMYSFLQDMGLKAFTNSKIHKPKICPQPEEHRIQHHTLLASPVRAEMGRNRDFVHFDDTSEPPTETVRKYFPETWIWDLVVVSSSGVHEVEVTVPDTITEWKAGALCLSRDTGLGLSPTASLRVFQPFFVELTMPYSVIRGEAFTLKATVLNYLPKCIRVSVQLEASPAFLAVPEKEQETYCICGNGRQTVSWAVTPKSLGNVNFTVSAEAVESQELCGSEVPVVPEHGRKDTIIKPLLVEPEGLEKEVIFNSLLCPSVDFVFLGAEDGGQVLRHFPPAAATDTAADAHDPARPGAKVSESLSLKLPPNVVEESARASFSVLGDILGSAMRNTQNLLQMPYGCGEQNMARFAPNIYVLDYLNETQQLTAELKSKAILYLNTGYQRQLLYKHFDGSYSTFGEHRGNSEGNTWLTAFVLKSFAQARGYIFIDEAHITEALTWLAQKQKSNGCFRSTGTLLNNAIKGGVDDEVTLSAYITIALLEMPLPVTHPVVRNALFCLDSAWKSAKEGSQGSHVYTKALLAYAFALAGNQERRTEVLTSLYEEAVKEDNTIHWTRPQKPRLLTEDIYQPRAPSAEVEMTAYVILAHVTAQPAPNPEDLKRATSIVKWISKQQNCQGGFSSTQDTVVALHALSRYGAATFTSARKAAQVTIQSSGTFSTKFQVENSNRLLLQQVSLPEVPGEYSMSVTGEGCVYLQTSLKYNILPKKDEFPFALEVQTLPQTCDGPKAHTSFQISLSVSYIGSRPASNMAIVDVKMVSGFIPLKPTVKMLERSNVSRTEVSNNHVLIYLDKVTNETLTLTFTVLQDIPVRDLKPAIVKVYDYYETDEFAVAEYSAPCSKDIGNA
Description: as §1, §2, §3, §4
Buffer, 0.5 ml and 0.1 ml of substrate solution are charged in a silicone-treated hard glass test tube or plastic test tube. The mixture is previously heated for 5 minutes in a thermostat at 37° C.
Then, 0.05 ml of enzyme reagent is added to the mixture to perform enzyme reaction at 37° C. for 10 minutes.
Accurately 10 minutes after, 1.0 ml of the terminate solution is added to stop the enzyme reaction. Then the reaction mixture is allowed to stand at 37° C. for 10 minutes and its absorbancy is measured at 405 nm.
as §6

Normal serum = assay: Relative reactivity of substrate with normal serum (absorbancy at 405 nm); type: biochemical; settings: substrate 10 mM/l; undiluted human normal serum; Tris 50 mmol, NaCl 150 mmol, pH 8.5; 37° C. 5 minutes; absorbancy 405 nm; relative to S-2222 10 mM = 1.0
Description: as §1, §2, §3
Normal Human -- -- undiluted
as §4
as §5, with “5” for “10”, “0.1” for “0.05”, “normal serum” for “enzyme reagent”
Accurately 5 minutes after, 2.0 ml of the terminate solution is added to stop the enzyme reaction. Then the reaction mixture is allowed to stand at 37° C. for 10 minutes and its absorbancy is measured at 405 nm.
as §6

[2] = Solubility of the substrates in water; type: physicochemical
From the text: (B) Solubility of the substrates of this invention and known substrates in water were examined.

Molecule	Relative Reactivity to Enzyme (relative value of absorbance) Try (Trypsin)	Relative Reactivity to Enzyme (relative value of absorbance) α2 M-Try [1]	Relative Reactivity to Enzyme (relative value of absorbance) Normal Serum (Normal serum)	Solubility [2]
Bz-Ile-Glu(OR)-Gly-Arg-pNA.HCl; R=H and CH3 [S-2222, reference compound]	1.0	1.0	1.0	6 mM/l
Cl.Cl.NC(N)=NCCC[C@H](NC(=O)[C@@H]1CCCCN1C(=O)[C@H](N)Cc1ccccc1)C(=O)Nc1ccc([N+](=O)[O-])cc1 [S-2238, HDPhePipArgpNA.2HCl, reference compound]	0.39	0.68	5.50	
H-D-Glu(OCH.(C2 H5)2)-Gly-Arg-ANBS.2HCl [Substrate No. 1]	0.84	1.19	0.03	
CCCN(CCC)C(=O)CC[C@@H](N)C(=O)NCC(=O)N[C@@H](CCCN=C(N)N)C(=O)Nc1ccc([N+](=O)[O-])cc1.Cl.Cl [Substrate No. 21]	0.74	1.46	0.20	
Cl.Cl.NC(N)=NCCC[C@H](NC(=O)CNC(=O)[C@H](N)CCC(=O)OCc1ccccc1)C(=O)Nc1ccc([N+](=O)[O-])cc1 [Substrate No. 2] (HELM PEPTIDE1{[dE].G.R.[O=[N+]([O-])c1ccc(N[*:1])cc1]}|CHEM1{[c1ccc(CO[*:1])cc1]}$PEPTIDE1,CHEM1,1:R3-1:R1$$$V2.0)	0.71	1.01	0.12	
CC(C)[C@H](NC(=O)OCc1ccccc1)C(=O)NCC(=O)N[C@@H](CCCNC(=N)N)C(=O)Nc1ccc([N+](=O)[O-])cc1 [CHR-TRY, Z-Val-Gly-Arg-pNA-HCl, reference compound] (HELM PEPTIDE1{[O=C(OCc1ccccc1)[*:2]].V.G.R.[O=[N+]([O-])c1ccc(N[*:1])cc1]}$$$$V2.0)	0.50	0.73	1.70	insoluble
CC(C)OC(=O)CC[C@@H](N)C(=O)NCC(=O)N[C@@H](CCCN=C(N)N)C(=O)Nc1ccc([N+](=O)[O-])cc1.Cl.Cl [Substrate No. 3] (HELM PEPTIDE1{[dE].G.R.[O=[N+]([O-])c1ccc(N[*:1])cc1]}|CHEM1{[CC(C)O[*:1]]}$PEPTIDE1,CHEM1,1:R3-1:R1$$$V2.0)	0.67	1.20	0.41	
